Experimental findings from ChEMBL document CHEMBL5233287, “In Vitro Hypoglycemic Diterpenoids from the Roots of Croton yunnanensis” (J Nat Prod, 2023) are described below.

Assay [1] has as its system 3T3-L1. The assay can be described thus: Hypoglycemic activity in insulin-resistant mouse 3T3-L1 cells assessed as increase in 2-deoxyglucose uptake treated with compound for 10 mins followed by 2-deoxyglucose challenge for 30 mins by liquid scintillation counting analysis. As to conditions: time 40.0 min. It counts as functional, cell-based.
The test system of assay [2] is 3T3-L1. Nature of the assay: Insulin sensitizing activity in mouse 3T3-L1 cells assessed as increase in 2-deoxyglucose uptake at 5 to 20 uM treated with compound and insulin for 10 mins followed by 2-deoxyglucose challenge for 30 mins by liquid scintillation counting analysis. It counts as functional, cell-based. The following applies: dose 5-20 µM, time 40.0 min.

Each structure is given as a SMILES string. Activity calls are given as the source filed them. No cut-off for these calls is given here.

With `COC(=O)C1=CCC[C@@H]2[C@]34C[C@@H](C5=C[C@@H](OC)OC5=O)O[C@@H]3O[C@]12CC[C@H]4C`, the outcome with 3T3-L1 [1] was Active.
In the case of `COC(=O)C1=CCC[C@@H]2[C@]34C[C@@H](C5=CC(=O)O[C@H]5OC)O[C@@H]3O[C@]12CC[C@H]4C`, the outcome with 3T3-L1 [2] and in the assay with 3T3-L1 [1] was Active.
Take `COC(=O)C1=CCC[C@H]2[C@@]13CC[C@@H](C)[C@]21C[C@@H](C2=CC(=O)O[C@H]2OC)O[C@@H]1O[C@@H]3OC`: in the assay with 3T3-L1 [1], the result was Active.
As for `COC(=O)C1=CCC[C@H]2[C@@]13CC[C@@H](C)[C@]21C[C@@H](C2=C[C@@H](OC)OC2=O)O[C@@H]1OC3=O`, the result with 3T3-L1 [1] was Active.
With `C=C1CC[C@]23[C@@H](OC(=O)c4ccccc4)O[C@H]4O[C@H](c5ccoc5)C[C@]14[C@H]2CCC(=O)[C@@]3(O)C(=O)OC`, the outcome with 3T3-L1 [2] and with 3T3-L1 [1] was Active.
With `COC(=O)C1=CCC[C@@H]2[C@]34C[C@@H](c5ccoc5)O[C@@H]3O[C@]12CC[C@H]4C`, in the assay with 3T3-L1 [1], the result was Active.
On to `COC(=O)[C@H]1C=CC[C@H]2[C@@]13CC[C@@H](C)[C@]21C[C@@H](C2=CC(=O)O[C@H]2OC)O[C@@H]1O3`, for which the outcome in the assay on 3T3-L1 [1] was Active.
